# Values of other authors as cited in patent publication US20240252447A1 (Ovid Therapeutics Inc., priority 2019, published 2024).
# Key:
# [1] = patients with a history of drug abuse
# [2] = system: sleep onset and sleep maintenance; conditions: three-month efficacy study, insomnia
smiles,measurement,setting,value
"Oc1noc2c1CCNC2 [Gaboxadol, 4,5,6,7-tetrahydroisoxazolo [5,4-c]pyridine-3-ol]",psychiatric adverse events,[1],steep increase in psychiatric adverse events
same,effects in sleep onset and sleep maintenance,[2],failed to show significant effects in sleep onset and sleep maintenance
same,time to peak concentration,conventional pharmaceutical formulations such as tablets and capsules,≤ 30 min
same,half-life (t1/2),plasma half-life,1.5 to 2 h
